Results from paper PMC12735951, “A Bioorthogonal TCO–Tetrazine-Based Pretargeted PET/NIRF Platform Enabling High-Contrast Tumor Imaging” (Pharmaceuticals, 2025).

Tests used:
[1] = In vitro stability in 50% fetal bovine serum (FBS); assay type: in vitro ADME
Protocol: (§1) ^68GaCl3 (5 mL, 20 mCi) and DOTA-Tz (50 μg) were mixed in a reaction vial. The pH was adjusted to 4.0–4.5 by adding 1 M sodium acetate, and the mixture was heated at 95 °C for 15 min without further purification. Radiochemical purity was confirmed by RP-HPLC. In vitro stability of ^68Ga-DOTA-Tz was assessed by incubating aliquots in 50% FBS or 50% PBS at 37 °C for 30 min, 1 h, 2 h, and 4 h. The partition coefficient (log p) was determined by mixing 1 mL of n-octanol with 1 mL of PBS containing the tracer, vortexing, and centrifuging at 3000 rpm for 5 min. Samples (0.1 mL) from both the organic and aqueous phases were withdrawn, and their radioactivity was measured using a γ-counter (PerkinElmer Wizard, Shelton, CT, USA).

[2] = Partition coefficient (log p), n-octanol/PBS; assay type: physicochemical
Protocol: as §1

HeLa tumors = assay: Pretargeting biodistribution (γ-counter) of DZ-Lys-TCO and ^68Ga-DOTA-H-Tz; assay type: in vivo, mice; conditions: DZ-Lys-TCO 48 h pretargeting interval
Protocol: To assess the in vivo biodistribution of the pretargeting system, female BALB/c nude mice bearing HeLa tumors (n = 3) were first injected intravenously with DZ-TCO. After 48 h, 0.74 MBq of ^68Ga-DOTA-H-Tz was administered via the tail vein. At 30, 60, and 120 min post-injection, mice were euthanized, and tissues including blood, tumor, liver, kidney, spleen, heart, lung, muscle, stomach, intestines, brain, and bone were excised, weighed, and counted using a γ-counter (Wizard2, PerkinElmer, Shelton, CT, USA). Radiotracer uptake was expressed as the percentage of injected dose per gram of tissue (%ID/g). Tumor-to-organ uptake ratios were calculated accordingly.

subcutaneous tumors = assay: Pretargeted PET imaging with DZ-Lys-TCO and ^68Ga-DOTA-H-Tz at different intervals; assay type: in vivo, mice; conditions: DZ-Lys-TCO pre-injected
Protocol: To evaluate in vivo tumor targeting and bioorthogonal reaction kinetics, female BALB/c nude mice bearing subcutaneous tumors were intravenously injected with […] of each DZ-TCO precursor in phosphate-buffered saline (PBS). At predefined intervals (24, 48, or 72 h post-injection), […] of ^68Ga-labeled tetrazine probe (^68Ga-DOTA-Me-Tz or ^68Ga-DOTA-H-Tz; 3.7 MBq in PBS) was administered via the tail vein. PET imaging was performed using the IRIS system (Inviscan, Paris, France) at 30 min, 1 h, and 2 h post-injection under 2% isoflurane anesthesia. Image reconstruction and quantitative analysis were conducted using Inveon Research Workplace and OsiriX MD software version 10.0.4. Regions of interest (ROIs) were manually defined over tumors and major organs, and radiotracer uptake was expressed as the percentage of the injected dose per gram of tissue (%ID/g).

[3] = In vitro stability in 50% PBS; assay type: physicochemical; conditions: 37 °C
Protocol: as §1

O=C([O-])CN1CCN(CC(=O)[O-])CCN(CC(=O)NCCCCNC(=O)Cc2ccc(-c3nncnn3)cc2)CCN(CC(=O)[O-])CC1.[68Ga+3] [^68Ga-DOTA-H-Tz]
radiochemical purity in FBS at 4 h ([1]; 50% FBS, 37 °C): 98.53 ± 0.58%
radiochemical stability after 4 h ([1]; PBS and serum): > 85%
log p [2]: −3.57 ± 0.21
Blood uptake (HeLa tumors; 30 min): 2.96 ± 0.11 %ID/g
Bone uptake (HeLa tumors; 30 min): 0.64 ± 0.27 %ID/g
Brain uptake (HeLa tumors; 30 min): 0.37 ± 0.30 %ID/g
Heart uptake (HeLa tumors; 30 min): 1.34 ± 0.53 %ID/g
Intestine uptake (HeLa tumors; 30 min): 1.97 ± 0.38 %ID/g
Kidney uptake (HeLa tumors; 30 min): 10.71 ± 1.34 %ID/g
Lung uptake (HeLa tumors; 30 min): 2.38 ± 1.41 %ID/g
Muscle uptake (HeLa tumors; 30 min): 0.97 ± 0.21 %ID/g
Spleen uptake (HeLa tumors; 30 min): 1.03 ± 0.08 %ID/g
Stomach uptake (HeLa tumors; 30 min): 1.16 ± 0.13 %ID/g
T/B (tumor-to-blood ratio) (HeLa tumors; 30 min): 1.18 ± 0.55
T/K (tumor-to-kidney ratio) (HeLa tumors; 30 min): 0.32 ± 0.14
T/L (tumor-to-liver ratio) (HeLa tumors; 30 min): 1.18 ± 0.28
liver uptake (HeLa tumors; 30 min): 2.95 ± 1.04 %ID/g
tumor uptake (HeLa tumors; 30 min): 3.53 ± 1.76 %ID/g
Blood uptake (HeLa tumors; 60 min): 1.05 ± 0.29 %ID/g
Bone uptake (HeLa tumors; 60 min): 0.52 ± 0.20 %ID/g
Brain uptake (HeLa tumors; 60 min): 0.10 ± 0.03 %ID/g
Heart uptake (HeLa tumors; 60 min): 0.78 ± 0.58 %ID/g
Intestine uptake (HeLa tumors; 60 min): 0.59 ± 0.08 %ID/g
Kidney uptake (HeLa tumors; 60 min): 6.54 ± 1.95 %ID/g
Lung uptake (HeLa tumors; 60 min): 0.50 ± 0.18 %ID/g
Muscle uptake (HeLa tumors; 60 min): 0.38 ± 0.15 %ID/g
Spleen uptake (HeLa tumors; 60 min): 0.91 ± 0.70 %ID/g
Stomach uptake (HeLa tumors; 60 min): 0.83 ± 0.30 %ID/g
T/B (tumor-to-blood ratio) (HeLa tumors; 60 min): 1.63 ± 0.53
T/K (tumor-to-kidney ratio) (HeLa tumors; 60 min): 0.25 ± 0.05
T/L (tumor-to-liver ratio) (HeLa tumors; 60 min): 1.08 ± 0.27
T/M (tumor-to-muscle ratio) (HeLa tumors; 60 min): 5.11 ± 3.51
liver uptake (HeLa tumors; 60 min): 1.56 ± 0.49 %ID/g
tumor uptake (HeLa tumors; 60 min): 1.72 ± 0.87 %ID/g
Blood uptake (HeLa tumors; 120 min): 0.64 ± 0.18 %ID/g
Bone uptake (HeLa tumors; 120 min): 0.08 ± 0.03 %ID/g
Brain uptake (HeLa tumors; 120 min): 0.03 ± 0.01 %ID/g
Heart uptake (HeLa tumors; 120 min): 0.17 ± 0.03 %ID/g
Intestine uptake (HeLa tumors; 120 min): 0.11 ± 0.08 %ID/g
Kidney uptake (HeLa tumors; 120 min): 3.28 ± 1.00 %ID/g
Lung uptake (HeLa tumors; 120 min): 0.14 ± 0.02 %ID/g
Muscle uptake (HeLa tumors; 120 min): 0.07 ± 0.02 %ID/g
Spleen uptake (HeLa tumors; 120 min): 0.24 ± 0.06 %ID/g
Stomach uptake (HeLa tumors; 120 min): 0.10 ± 0.05 %ID/g
T/B (tumor-to-blood ratio) (HeLa tumors; 120 min): 1.39 ± 0.74
T/K (tumor-to-kidney ratio) (HeLa tumors; 120 min): 0.26 ± 0.10
T/L (tumor-to-liver ratio) (HeLa tumors; 120 min): 1.07 ± 0.05
T/M (tumor-to-muscle ratio) (HeLa tumors; 120 min): 10.92 ± 0.31
liver uptake (HeLa tumors; 120 min): 0.76 ± 0.23 %ID/g
tumor uptake (HeLa tumors; 120 min): 0.82 ± 0.28 %ID/g
Bone uptake, consistently (HeLa tumors; all time points): < 0.70 %ID/g
maximum T/M ratio (subcutaneous tumors; 24 h interval): 5.31 ± 0.48
liver uptake (subcutaneous tumors; 24 h interval, 30 min p.i.): 2.61 ± 0.53 %ID/g
tumor uptake (subcutaneous tumors; 24 h interval, 30 min p.i.): 2.64 ± 0.73 %ID/g
T/L ratio (subcutaneous tumors; 24 h interval, 60 min p.i.): 1.01 ± 0.08
liver uptake (subcutaneous tumors; 24 h interval, 60 min p.i.): 1.15 ± 0.16 %ID/g
tumor uptake (subcutaneous tumors; 24 h interval, 60 min p.i.): 1.18 ± 0.25 %ID/g
liver uptake (subcutaneous tumors; 24 h interval, 120 min p.i.): 0.91 ± 0.16 %ID/g
tumor uptake (subcutaneous tumors; 24 h interval, 120 min p.i.): 0.79 ± 0.14 %ID/g
T/L ratio (subcutaneous tumors; 48 h interval): 1.35 ± 0.26
T/M ratio (highest) (subcutaneous tumors; 48 h interval): 8.30 ± 3.39
tumor uptake (subcutaneous tumors; 48 h interval, 30 min p.i.): 3.24 ± 0.95 %ID/g
tumor uptake (subcutaneous tumors; 48 h interval, 120 min p.i.): 0.96 ± 0.29 %ID/g
maximum T/M ratio (subcutaneous tumors; 72 h interval): 5.84 ± 1.49
liver uptake (subcutaneous tumors; 72 h interval, 30 min p.i.): 2.32 ± 0.79 %ID/g
tumor uptake (subcutaneous tumors; 72 h interval, 30 min p.i.): 1.89 ± 0.57 %ID/g
T/L ratio (subcutaneous tumors; 72 h interval, 60 min p.i.): 0.98 ± 0.10
liver uptake (subcutaneous tumors; 72 h interval, 60 min p.i.): 1.40 ± 0.43 %ID/g
tumor uptake (subcutaneous tumors; 72 h interval, 60 min p.i.): 1.35 ± 0.31 %ID/g
liver uptake (subcutaneous tumors; 72 h interval, 120 min p.i.): 0.97 ± 0.05 %ID/g
tumor uptake (subcutaneous tumors; 72 h interval, 120 min p.i.): 0.91 ± 0.31 %ID/g
radiochemical purity in PBS after 4 h [3]: 98.76 ± 0.52%
